Measured values reported in patent US20070298105A1, “METHODS OF TREATING CONDITIONS BY SUSTAINED RELEASE ADMINISTRATION OF BENZIMIDAZOLE DERIVATIVES” (priority 2006, published 2007).
Where two headings read alike, the source gives them in different places.

How the values were obtained:
intragastric pH = assay: Colonic intubation study: intragastric pH profile (percent of time with pH >4); type: in vivo, human; conditions: for Mean percent of time with pH >4: TRT E: esomeprazole 40 mg oral tablet
Description: A single-dose, open-label, partially randomized, five-treatment, five-period, crossover pilot study was performed in healthy males to determine relative pharmacokinetics of rabeprazole, and comparators when dosed either orally or colonically. The study was a single dose study with blood sampling up to 24 hours following initiation.
Treatments A and B were rabeprazole sodium solution dosed to provide 30 and 60 mg, respectively, over 20 hours in the transverse colon of the subjects. Colonic dosing occurred using a nasoenteral tube. Treatment C was a single 20 mg dose of rabeprazole sodium oral enteric coated tablets dosed orally. Treatment D was placebo (200 mL of water) dosed orally.
The intragastric pH profile was analyzed based on the percentage of time that the intragastric pH was above 4, which was calculated for the full 24 hours. In addition, the mean pH value over 5 time intervals of 6 hours each during the 30-hr sampling time was also estimated.

[1] = Colonic intubation study: plasma pharmacokinetics of rabeprazole and esomeprazole; type: in vivo, human; conditions: male, human, plasma, po, 40 mg; for AUC(0-inf): read-out: AUCinf (mean)
Description: A single-dose, open-label, partially randomized, five-treatment, five-period, crossover pilot study was performed in healthy males to determine relative pharmacokinetics of rabeprazole, and comparators when dosed either orally or colonically. The study was a single dose study with blood sampling up to 24 hours following initiation. […] Colonic dosing occurred using a nasoenteral tube. Treatment C was a single 20 mg dose of rabeprazole sodium oral enteric coated tablets dosed orally. Treatment D was placebo (200 mL of water) dosed orally. […] For subjects whose apparent elimination rate constant [k] could not be properly determined, the AUC to infinity [AUCinf]) was calculated based on the median apparent elimination constant [k] of the subjects with available t1/2 values in the same treatment period. […] The intragastric pH profile were determined.

[2] = TRT E: esomeprazole 40 mg oral tablet, N = 19
[3] = TRT E: esomeprazole 40 mg oral tablet, subset N = 14

COc1ccc2nc([S@@+]([O-])Cc3ncc(C)c(OC)c3C)[nH]c2c1 [Esomeprazole]
Mean percent of time with pH >4 (intragastric pH; 0-6 hr (10 am-4 pm), N = 19): 57.0% | Mean percent of time with pH >4 (intragastric pH; 0-6 hr (10 am-4 pm), subset N = 14): 64.3% | Mean percent of time with pH >4 (intragastric pH; 6-12 hr (4 pm-10 pm), N = 19): 76.3% | Mean percent of time with pH >4 (intragastric pH; 6-12 hr (4 pm-10 pm), subset N = 14): 87.0% | Mean percent of time with pH >4 (intragastric pH; 12-18 hr (10 pm-4 am), N = 19): 36.6% | Mean percent of time with pH >4 (intragastric pH; 12-18 hr (10 pm-4 am), subset N = 14): 42.8% | Mean percent of time with pH >4 (intragastric pH; 18-24 hr (4 am-10 am), N = 19): 56.0% | Mean percent of time with pH >4 (intragastric pH; 18-24 hr (4 am-10 am), subset N = 14): 60.1% | Mean percent of time with pH >4 (intragastric pH; 24-30 hr (10 am-4 pm), N = 19): 49.5% | Mean percent of time with pH >4 (intragastric pH; 24-30 hr (10 am-4 pm), subset N = 14): 57.1% | Mean percent of time with pH >4 (intragastric pH; 24-hr average, N = 19): 56.5% | Mean percent of time with pH >4 (intragastric pH; 24-hr average, N = 19, listed as esomeprazole): 57% | Mean percent of time with pH >4 (intragastric pH; 24-hr average, subset N = 14): 63.5% | effect on percentage of time with pH >4 compared to placebo (intragastric pH; first 6 hours of treatment, esomeprazole treatment): significant increase | AUC(0-t) [1, 2]: 1870 ng·h/mL | AUC(0-inf) [1, 2]: 1910 ng·h/mL | half-life ([1]; TRT E: esomeprazole 40 mg oral tablet, N = 19, read-out: t1/2 (median) (converted)): 48 min | Cmax ([1]; TRT E: esomeprazole 40 mg oral tablet, single dose, healthy males, N = 19): 727 ng/mL | AUC(0-t) [1, 3]: 2270 ng·h/mL | Cmax [1, 3]: 800 ng/mL | AUC(0-inf) [1, 3]: 2310 ng·h/mL | half-life ([1]; oral administration of 40 mg esomeprazole, read-out: median half-life (converted)): ~60 min
